# Assay results published in patent US20250320496A1, “MODULATION OF ABCB11 GENE TRANSCRIPTION USING ANTISENSE OLIGONUCLEOTIDES TARGETING REGULATORY RNAS” (CAMP4 Therapeutics Corporation, priority 2022, published 2025).
# Strand notation (5' to 3'): a small letter for the sugar, then the base; units joined by * are phosphorothioate-linked, units joined directly phosphodiester-linked; [ ] holds rarer units or linkages, { } end groups; capitals alone tell only the bases. e = 2'-O-(2-methoxyethyl) (MOE); l = locked nucleic acid (LNA); [5mC] = 5-methylcytosine; d = 2'-deoxy (DNA)
# Test system: human ABCB11 mRNA
# Test: ASO treatment of primary human hepatocytes (PHH), ABCB11 mRNA by RT-qPCR normalized to B2M
# Assay type: cell-based
# Conditions: primary human hepatocytes, 5 μM ASO, normalized to untreated PHHs (UNT)
# Method in brief: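 Plated primary human hepatocytes were treated 4 h post-thaw with ASO (e.g., 1.25–10 μM; initial screen 5 μM) in medium containing 0.3 mg/ml Matrigel for 72 hrs. Total RNA was reverse-transcribed and ABCB11 mRNA measured by Taqman RT-qPCR, normalized to B2M, with fold change versus untreated PHHs.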
row,Substance,ABCB11 mRNA FC (5 μM ASO vs. UNT)
1,CO-6973 (antisense eA*eA*eA*eA*eA*eT*eG*eGeGeT*eGeT*eG*eG*eA*eT*eG*eT*eA*eG),1.325 fold change
2,CO-6974 (antisense eT*eG*eG*eG*eA*eA*eG*eT*eT*eT*eA*eA*eA*eA*eA*eA*eT*eG*eG*eG),1.394 fold change
3,CO-6975 (antisense e[5mC]*eT*eG*eA*eA*eG*eT*eG*eG*eA*eG*eG*eT*eG*eG*eT*eG*eG*eA*eA),1.34 fold change
4,CO-6976 (antisense eT*e[5mC]*e[5mC]*eT*eG*eA*eA*eG*eT*eG*eG*eA*eG*eG*eT*eG*eG*eT*eG*eG),1.373 fold change
5,CO-6977 (antisense eG*eG*eT*eA*eA*eG*eT*eT*e[5mC]*e[5mC]*eT*eG*eA*eA*eG*eT*eG*eG*eA*eG),1.15 fold change
6,CO-6978 (antisense eG*eA*eG*eG*e[5mC]*eA*eT*e[5mC]*eA*eG*eG*eT*eA*eA*eG*eT*eT*e[5mC]*e[5mC]*eT),1.456 fold change
7,CO-6979 (antisense eG*eT*eG*eA*eG*dG*d[5mC]*dA*dT*d[5mC]*dA*dG*dG*dT*dA*eA*eG*eT*eT*e[5mC]),1.201 fold change
8,CO-6981 (antisense eA*e[5mC]*eA*eG*eA*eA*eG*eT*eG*eA*eG*eG*e[5mC]*eA*eT*e[5mC]*eA*eG*eG*eT),1.164 fold change
9,CO-6982 (antisense eA*eA*eG*eA*e[5mC]*eA*eG*eA*eA*eG*eT*eG*eA*eG*eG*e[5mC]*eA*eT*e[5mC]*eA),0.976 fold change
10,CO-6983 (antisense eA*eG*eA*eA*eG*eA*e[5mC]*eA*eG*eA*eA*eG*eT*eG*eA*eG*eG*e[5mC]*eA*eT),1.065 fold change
11,CO-6984 (antisense eT*eG*eA*eG*eG*eT*e[5mC]*eT*eA*eA*eT*eT*eT*eA*eG*eA*eA*eG*eA*e[5mC]),1.127 fold change
12,CO-6985 (antisense eT*eG*eG*eA*eT*lG*dT*dA*lG*dA*dT*lG*dA*dA*lT*eG*eG*e[5mC]*eA*eA),1.414 fold change
13,CO-6986 (antisense eT*eG*eG*lA*eT*dG*dT*lA*dG*dA*dT*lG*dA*dA*dT*lG*eG*e[5mC]*eA*eA),0.998 fold change
14,CO-6987 (antisense eT*eG*eG*eA*lT*dG*dT*dA*lG*dA*dT*dG*lA*dA*dT*eG*lG*e[5mC]*eA*eA),1.026 fold change
15,CO-6988 (antisense eT*eG*eG*lA*eT*lG*eT*lA*eG*lA*eT*lG*eA*lA*eT*lG*eG*l[5mC]*eA*eA),1.093 fold change
16,CO-6989 (antisense eT*eG*lG*eA*lT*eG*lT*eA*lG*eA*lT*eG*lA*eA*lT*eG*lG*e[5mC]*eA*eA),1.469 fold change
17,CO-6990 (antisense eT*eG*lG*eA*eT*lG*eT*eA*lG*eA*eT*lG*eA*eA*lT*eG*eG*l[5mC]*eA*eA),1.16 fold change
18,CO-6991 (antisense eT*eG*eG*eA*lT*eG*eT*eA*lG*eA*eT*eG*lA*eA*eT*eG*lG*e[5mC]*eA*eA),1.193 fold change
19,CO-6992 (antisense eT*eG*eG*lA*eT*eGeT*lA*eG*eA*eT*lG*eA*eA*eT*lG*eG*e[5mC]*eA*eA),0.992 fold change
20,CO-6993 (antisense eT*eG*eG*eA*eT*lG*eT*eA*eG*eA*lT*eG*eA*eA*eT*lG*eG*e[5mC]*eA*eA),1.209 fold change

row,Substance,ABCB11 mRNA FC (5 μM ASO vs. UNT)
1,CO-6994 (antisense eT*eG*eG*eA*lT*eG*eT*eA*eG*lA*eT*eG*eA*eA*lT*eG*eG*e[5mC]*eA*eA),1.131 fold change
2,CO-6995 (antisense eG*eT*eG*eA*eG*lG*d[5mC]*dA*lT*d[5mC]*dA*lG*dG*dT*lA*eA*eG*eT*eT*e[5mC]),1.277 fold change
3,CO-6996 (antisense eG*eT*eG*lA*eG*dG*d[5mC]*lA*dT*d[5mC]*dA*lG*dG*dT*dA*lA*eG*eT*eT*e[5mC]),1.314 fold change
4,CO-6997 (antisense eG*eT*eG*eA*lG*dG*d[5mC]*dA*lT*d[5mC]*dA*dG*lG*dT*dA*eA*lG*eT*eT*e[5mC]),1.058 fold change
5,CO-6998 (antisense eG*eT*eG*lA*eG*lG*e[5mC]*lA*eT*l[5mC]*eA*lGeG*lT*eA*lA*eG*lT*eT*e[5mC]),1.246 fold change
6,CO-6999 (antisense eG*eT*lG*eA*lG*eG*l[5mC]*eA*lT*e[5mC]*lA*eG*lGeT*lA*eA*lG*eT*eT*e[5mC]),1.24 fold change
7,CO-7000 (antisense eG*eT*lG*eA*eG*lG*e[5mC]*eA*lT*e[5mC]*eA*lG*eG*eT*lA*eA*eG*lT*eT*e[5mC]),1.203 fold change
8,CO-7001 (antisense eG*eT*eG*eA*lG*eG*e[5mC]*eA*lT*e[5mC]*eA*eG*lGeT*eA*eA*lG*eT*eT*e[5mC]),1.237 fold change
9,CO-7002 (antisense eG*eT*eG*lA*eG*eG*e[5mC]*lA*eT*e[5mC]*eA*lG*eG*eT*eA*lA*eG*eT*eT*e[5mC]),1.367 fold change
10,CO-7003 (antisense eG*eT*eG*eA*eG*lG*e[5mC]*eA*eT*e[5mC]*lA*eG*eG*eT*eA*lA*eG*eT*eT*e[5mC]),1.066 fold change
11,CO-7004 (antisense eG*eT*eG*eA*lG*eG*e[5mC]*eA*eT*l[5mC]*eA*eG*eG*eT*lA*eA*eG*eT*eT*e[5mC]),1.285 fold change
12,CO-7005 (antisense eG*eT*eG*eG*eA*eT*dG*dT*dA*dG*dA*dT*dG*dA*dA*dT*eG*eG*e[5mC]*eA*eA*eG),1.257 fold change
13,CO-7006 (antisense eG*eT*eG*eG*eA*eT*eG*eT*eA*eG*eA*eT*eG*eA*eA*eT*eG*eG*e[5mC]*eA*eA*eG),1.279 fold change
14,CO-7007 (antisense eG*eT*eG*eG*eA*dT*dG*dT*eA*dG*dA*dT*dG*eA*dA*dT*dG*eG*e[5mC]*eA*eA*eG),0.963 fold change
15,CO-7008 (antisense eG*eT*eG*eG*eA*lT*dG*dT*lA*dG*dA*dT*dG*lA*dA*dT*lG*eG*e[5mC]*eA*eA*eG),1.175 fold change
16,CO-7009 (antisense eT*eG*eT*eG*eG*eA*eT*dG*dT*dA*dGdA*dT*dG*dA*dA*dT*eG*eG*e[5mC]*eA*eA*eG*eG),1.289 fold change
17,CO-7010 (antisense eT*eG*eT*eG*eG*eA*eT*eG*eT*eA*eG*eA*eT*eG*eA*eA*eT*eG*eG*e[5mC]*eA*eA*eG*eG),1.293 fold change
18,CO-7011 (antisense eT*eG*eT*eG*eG*dA*dT*eG*dT*dA*eG*dA*dT*eG*dA*dA*eT*dG*dG*e[5mC]*eA*eA*eG*eG),1.284 fold change
19,CO-7012 (antisense eT*eG*eT*eG*eG*dA*dT*lG*dT*dA*lG*dA*dT*lG*dA*dA*lT*dG*dG*e[5mC]*eA*eA*eG*eG),0.985 fold change
20,CO-7013 (antisense eA*eG*eT*eG*eA*eG*dG*d[5mC]*dA*dT*d[5mC]*dA*dG*dG*dT*dA*eA*eG*eT*eT*e[5mC]*e[5mC]),0.997 fold change
